In patent US20240239787A1, “COMPOUNDS FOR USE IN THE TREATMENT OF CANCER” (Nanyang Technological University, priority 2021, published 2024):

Assays:
[1] = target: T1, BRD4 (Mus musculus, UniProt Q9ESU6); assay: BRD4 level in B16F10 tumour lysates of mice (Western blot); format: in vivo; conditions: intratumoral 5 mg/kg every 4 h up to 8 h
T1 construct: from tissue; host or cells: B16F10 tumour in C57BL/6J mice, tumour lysate
Description: We further investigated the feasibility of tumour microenvironment-activatable epigenetic BRD4 protein degradation and further validated the potential anti-tumour efficacy of ENCTAC in a C57BL/6J mice model. Typically, we implanted B16F10 mouse melanoma cell line into the right flank of living mice and the solid tumour was monitored to grow until palpable size before undergoing targeted protein disruption and therapeutic studies (FIG. 24a). The living mice bearing tumours were first subject to NTR-Cy7, a reported NTR enzyme responsive probe molecule (Li, Y. et al., J. Am. Chem. Soc. 2015, 137, 6407-[…]), followed by animal imaging scanning.
(§1) B16F10 cells at a density of 2×10^6 cells were injected subcutaneously into the right flank of six- to eight-week-old mice. Once the tumours became palpable, intratumoral injection of the buffer solution as vehicle, JQ1, and JW4 and JQ1-CBT at dosage of 5 mg/kg were performed for every 4 h up to 8 h. The mice were sacrificed and protein extraction were carried out. The protein levels in lysis samples were analysed by western blot by following the protocol in Example 12. Histology and immunofluorescence staining were performed by following the protocol in Example 13. […] Images were captured using the EVOS M5000 imaging system (Thermo Fischer Scientific, Waltham, MA, USA) and quantified using ImageJ.

[2] = tested on: HIF-1α; assay: HIF-1α level in hypoxic Hela cells (immunofluorescence imaging, Western blot); format: cell-based, human
Procedure: (§2) HeLa, Hek293T, MDA-MB-231, 4T1 or B16F10 cells (1.5×10^6 cells/mL) were treated with J266 (10 μM) for 6 h before incubating with JQ1-CBT at the indicated concentrations and time. This entire incubation was performed in normoxia condition. For NTR-moiety caged JW4, the cells were treated with JW4 (10 μM) 6 h prior to the addition of JQ1-CBT for a subsequent 12 h, and was performed entirely under hypoxic condition. Comparison of the downstream effect between the controls and drug-treated cells were completely executed in hypoxic condition. To work up, the cells were washed with cold PBS (pH 7.4) twice, and lysed with RIPA buffer supplemented with protease inhibitor cocktail and phosphatase inhibitor cocktail for 10 min at 4° C. Then, the lysed cells were collected and centrifuged at 13,500 rpm for 20 min at 4° C. The supernatant was collected and the protein concentration was analyzed by NanoDrop™ 2000/2000c Spectrophotometers. The lysate volumes were fine-tuned and loaded onto a Mini-PROTEAN® TGX™ 4-20% Precast Gel and was separated by SDS-PAGE. Then, the gel was transferred onto a PVDF membrane (100 V, 90 min, 4° C.), washed with TBS-T twice, and blocked with 1% BSA for 1 h at r.t. Next, the membrane was incubated with primary antibody overnight at 4° C., washed thrice with TBS-T, followed by incubation with goat anti-rabbit IgG (H+L) Secondary Antibody, HRP for 1 h. The membrane was supplemented with Radiance Q chemiluminescent ECL substrate and visualized using Amersham™ ImageQuant™ 800 biomolecular imager. B-Tubulin was used as the internal control.
Hela cells were plated at a density of 8×10^4 cells/mL in each well of the eight-well ibidi dishes before experiment. To sustain the hypoxia-induced factor throughout the drug treatment process, drug incubation was performed entirely in hypoxic chamber. […] The fluorescence of the alleviated HIF-1α expression upon drug treatment was visualized with Carl Zeiss LSM 800 microscopes (Hoechst 33258: Ex=405 nm, Em=460/50 nm; Alexa Fluor 488: Ex=488 nm, Em=515/30 nm; Alexa Fluor 594: Ex=561 nm, Em=617/20 nm).

[3] = tested on: HIF-1α; assay: HIF-1α level in B16F10 tumour lysates of mice (Western blot); format: in vivo, mouse; conditions: intratumoral 5 mg/kg every 4 h up to 8 h
Procedure: as §1, with “13. Specifically, the resected tumours were fixed in 4% paraformaldehyde for 48 h, washed with PBS, and gradually transferred to 15% sucrose, followed by 30% sucrose before being embedded in O.C.T. compound. Five-micrometre cryosections of the tumour samples were dehydrated and blocked with a blocking buffer containing 2% BSA, 1% Tween 20, 3% Triton X, and horse serum for an hour before being incubated with primary antibodies, followed by a washing step and then incubation with secondary antibodies. The primary antibodies used were Ki67 and CD31.” for “13.”

[4] = tested on: zebrafish larvae; assay: Vascularization of vhl mutant and wide type zebrafish larvae (confocal imaging); format: in vivo; conditions: vhl^hu2117 crosses, 10 μM; non-treatment approximately one quarter
Procedure: Vasculature zebrafishes were obtained from natural crosses of the AB wild-type strain or vhl^+/hu2117 carriers on the fli1a:egfp^y1 transgenic background (which fluorescently marks the vasculature). JW4 and JQ1-CBT were dissolved in DMSO and the mixture was applied to embryos at equimolar concentration of 10 μM, with J252 (10 μM) and JQ1 (10 μM) used for the control experiments. […] The vascular plexus was imaged on a Zeiss LSM800 confocal microscope. Green: blood vessel tracker, .ex: 488 nm, .em: 520/30 nm; red: . ex: 564 nm, .em: 610/30 nm.

[5] = tested on: B16F10 mouse melanoma; assay: Antitumour efficacy in B16F10 tumour bearing C57BL/6J mice; format: in vivo; conditions: daily treatment, 5 days, vs vehicle
[6] = tested on: CA9; assay: CA9 level in hypoxic Hela cells (Western blot); format: cell-based, human
Procedure: as §2, with “The membrane was supplemented with Radiance Q chemiluminescent ECL substrate and visualized using Amersham™ ImageQuant™ 800 biomolecular imager. B-Tubulin was used as the internal control.” left out

[7] = tested on: c-Myc; assay: c-Myc level in B16F10 tumour lysates of mice (Western blot); format: in vivo, mouse; conditions: intratumoral 5 mg/kg every 4 h up to 8 h
Procedure: as §1, with “13. Specifically, the resected tumours were fixed in 4% paraformaldehyde for 48 h, washed with PBS, and gradually transferred to 15% sucrose, followed by 30% sucrose before being embedded in O.C.T. compound. Five-micrometre cryosections of the tumour samples were dehydrated and blocked with a blocking buffer containing 2% BSA, 1% Tween 20, 3% Triton X, and horse serum for an hour before being incubated with primary antibodies, followed by a washing step and then incubation with secondary antibodies. The primary antibodies used were Ki67 and CD31.” for “13.”

## Cc1sc2c(c1C)C(c1ccc(Cl)cc1)=N[C@@H](CC(=O)OC(C)(C)C)c1nnc(C)n1-2 [JQ1]
[1]
  BRD4 protein level in tumour: trivial effect
[2]
  HIF-1α protein level: did not alter
[3]
  HIF-1α protein level in tumour: trivial effect
[4]
  vascularized larvae: 21.3%
[5]
  tumour progression (serial volumetric measurement): reduced tumour growth
[6]
  CA9 amount: partially downgrade
[7]
  c-Myc expression in tumour: downgrade c-Myc expression
